In US20190351012A1, “TARGETING OF INTERFERON-STIMULATED GENE EXPRESSION TO TREAT INTERFERONOPATHIES” (New York University, priority 2018, published 2019):

Tested on: p21^Cip1/wAF1 expression in HeLa cells
Assay: p21 Cip1/WAF1 expression in HeLa cells, real-time RT-PCR (control for HDAC inhibition)
Assay type: cell-based, human
Conditions: IFN-α 6 h, FIG. 1B
Protocol: FIG. 1. Class I HDAC mediates ISG expression. (A, B) HeLa cells were treated with IFN-α for 6 h in the absence or presence of increasing concentrations of Romidepsin or TSA, as indicated. RNA was quantified by real-time RT-PCR for ISG54 and p21^wAF1/Cip1 expression, normalized to GAPDH, and represented as fold induction over untreated cells. (C) HeLa cells were treated with IFN-α for 6 h in the absence or presence of increasing concentrations of romidepsin, RGFP966, or RGFP233, as indicated. RNA was quantified by real-time RT-PCR for IRF9 expression, normalized to GAPDH and represented as fold induction over untreated cells. HEK293 cells were transfected with siRNA against HDAC1, HDAC2, or E2F4 separately (D) or with a combination of HDAC1 and HDAC2 targeting oligonucleotides (E) and cells were stimulated with IFN-α for 6 h (α) in the presence (αT) or absence of TSA, as indicated. Whole cell extracts were analyzed for expression of the indicated proteins by western blotting (left panels). ISG54 expression was quantified by real-time RT-PCR, and represented as fold induction over untreated cells (right panels). (F) HEK293T cells were transfected with pcDNA3 (Ctl), HDAC1, or HDAC2 expression constructs, and ISG54 expression was quantified after stimulation with IFN-α for 10 h. […] Nuclear extracts were analyzed for expression of Sin3B by western blotting (middle panels). […]

CC(/C=C/C(=O)NO)=C\[C@@H](C)C(=O)c1ccc(N(C)C)cc1 [TSA, Trichostatin A]
p21 Cip1/WAF1 expression: led to p21^Cip1/wAF1 expression
